In patent publication US20250082663A1, “COMPOUNDS AND METHODS FOR TREATING OR […] DOMINANT POLYCYSTIC KIDNEY DISEASE (ADPKD), AUTOSOMAL DOMINANT […] DISEASE (ADPLD) AND/OR AUTOSOMAL RECESSIVE POLYCYSTIC KIDNEY DISEASE (ARPKD)” (YALE UNIVERSITY, priority 2021, published 2025):
pIC50: −log10 of the molar value. “Also recorded” adds a separate entry of the source.

Experiments:
[1] = tested on: Pkd1^R2216W/flox; Pkhd1-Cre mice; assay: Neonatal ADPKD model with Pkd1 R2216W missense mutation in trans with floxed allele; assay type: in vivo, mouse
Method: Effect of toyocamycin were investigated in a relevant ADPKD model. For this a mouse model was constructed with a human Pkd1 missense mutation (R2216W) in trans with a floxed allele on a Pkhd1-Cre and Pax8-rtTA; tet-OCre background.
(§1) The present study first tested toyocamycin in Pkd1^flox/flox; Pax8rtTA; tet-OCre mice. Animals were given doxycycline water between P28 to P42 then treatment was started from week 6 until week 18 (0.5 mg/kg; once every 2 weeks; 6 i.p. injections). […] The present study recapitulated these findings in another slow progressing adult ADPKD model. A compound mutant model with a floxed Pkd1 allele in trans with a human pathogenic hR2220W (mR2216W) missense mutation that causes defects in PC1 GPS cleavage and trafficking was used. Pkd1^R2216W/flox line was crossed with either Pkhd1-Cre or Pax8rtTA; Tet-OCre to generate neonatal or adult doxycycline inducible lines respectively.

cystic cell = assay: Cystic cell viability (FIGS. 18A-18B); assay type: cell-based
[2] = tested on: Pkd1^flox/flox; Pax8rtTA; tet-OCre mice; assay: Adult ADPKD model, complete loss of function (doxycycline-induced Pkd1 deletion); assay type: in vivo, mouse; conditions: for KW/BW ratio: p=0.03
From the text: FIGS. 19A-19B: Ire1α inhibitor improves disease progression in an adult ADPKD model. Adult onset model with complete loss of function (Pkd1fl/fl;Pax8rtTA;tet-OCre). […]
as §1, with “Animals were given doxycycline water between P28 to P42 then treatment was started from week 6 until week 18 (0.5 mg/kg; once every 2 weeks; 6 i.p. injections).” left out

[3] = biological target: Ire1α endoribonuclease activity (Homo sapiens, UniProt O75460); conditions: cited from earlier work
Sequence of Ire1α endoribonuclease activity (O75460 19-977): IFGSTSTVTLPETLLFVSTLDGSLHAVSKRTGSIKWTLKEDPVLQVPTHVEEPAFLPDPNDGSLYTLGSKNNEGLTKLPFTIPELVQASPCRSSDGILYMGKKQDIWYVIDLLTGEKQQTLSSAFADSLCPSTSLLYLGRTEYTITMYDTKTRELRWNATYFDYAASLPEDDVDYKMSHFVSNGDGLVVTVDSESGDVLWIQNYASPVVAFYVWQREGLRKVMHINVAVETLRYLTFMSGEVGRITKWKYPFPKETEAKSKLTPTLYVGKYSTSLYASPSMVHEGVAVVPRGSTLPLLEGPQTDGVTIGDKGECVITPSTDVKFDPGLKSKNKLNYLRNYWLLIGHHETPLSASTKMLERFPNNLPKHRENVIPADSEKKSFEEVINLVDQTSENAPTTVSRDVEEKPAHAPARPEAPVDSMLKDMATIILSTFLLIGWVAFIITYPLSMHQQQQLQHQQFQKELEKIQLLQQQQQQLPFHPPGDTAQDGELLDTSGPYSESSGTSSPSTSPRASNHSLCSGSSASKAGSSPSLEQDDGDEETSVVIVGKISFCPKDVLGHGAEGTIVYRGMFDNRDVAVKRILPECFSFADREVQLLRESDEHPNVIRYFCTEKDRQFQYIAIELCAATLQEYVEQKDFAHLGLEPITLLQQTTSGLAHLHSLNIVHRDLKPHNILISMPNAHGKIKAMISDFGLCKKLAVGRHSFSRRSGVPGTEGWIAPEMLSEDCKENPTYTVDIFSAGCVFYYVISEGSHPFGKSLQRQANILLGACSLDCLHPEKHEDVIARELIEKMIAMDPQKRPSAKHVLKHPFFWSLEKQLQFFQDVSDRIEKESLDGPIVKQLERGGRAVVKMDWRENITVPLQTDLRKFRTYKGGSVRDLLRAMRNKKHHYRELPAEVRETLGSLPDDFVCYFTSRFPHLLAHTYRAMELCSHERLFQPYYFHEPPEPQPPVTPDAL

[4] = Phase 1 trial; no changes in Hb, WBC, Pt, AP, SGOT and BUN; cited from earlier work
nucleotide incorporation = conditions: up to concentrations of 10 uM; cited from earlier work
PKD mice = PKD mice / preclinical models, model not further specified; assay type: in vivo, mouse
Method: FIGS. 22A-22C: Irela inhibitor prevents cyst growth in preclinical models.
FIG. 36: Gene inactivation between P28 and P42. Treatment (0.5 mg/kg; 1×/2 wks) between 6-18 weeks of age.
The basal activity of spliced active XBP1s appears to be a protective survival factor for PC1-null cells that form cysts. […] Thus, specific pharmacological inhibition of the endoribonuclease activity of IRE1α, by inhibiting its ability to splice XBP1 to active XBP1s, should be beneficial in slowing cyst growth in ADPKD. This hypothesis was tested pharmacologically by inhibiting IRE1α endoribonuclease activity using toyocamycin, which is a potent IRE1α endoribonuclease inhibitor.

[5] = tested on: Pkd1^R2216W/flox; Pax8rtTA; tet-OCre mice; assay: Adult ADPKD model with Pkd1 R2216W missense mutation in trans with floxed allele; assay type: in vivo, mouse
Method: In order to examine whether this drug leads to disease modifying effects in the adult counterpart of this model, Pkd1^RW/fl; Pax8^rtTA; Tet-OCre mice were generated. In this mice the Cre recombinase is turned on throughout the nephron (except for the PT S3 segment) using a doxycycline inducible system. The mice received doxycycline in the drinking water from P28-P42to induce Cre and inactivate Pkd1 and were then injected with toyocamycin once every 2weeks starting at 6 weeks of age.
as §1
Finally, the present study examined the status of apoptosis in kidneys isolated from Pkd1^R2216W/flox; Pax8rtTA; tet-OCre mice treated with toyocamycin between week 12 to 18 (FIG. 34). […] Finally, the present study set forth to examine whether the effect seen in mice can be recapitulated with a relevant cell line model. Although cell line models for PKD are average mimics of the animal models, they do provide opportunities for a closer look at mechanisms of genotype-phenotype relationships in the context of programmed cell death. The present study used a previously described cell line i.e. PN24; Pkd1^−/−) as the starting point for inactivation of XBP1 via CRISPR/Cas9. At baseline, no differences in cell viability among the 3 genotypes i.e. Pkd1^het, Pkd1^−/−, and Pkd1/XBP1 DKO were observed. The present study then compared the response of Pkd1^+/−, Pkd1^−/−, and Pkd1/XBP1 DKO cells to a sensitized background induced by treatment with 11β-dichloro, an ROS inducer.

IRE1α kinase activity = IRE1α kinase activity (Homo sapiens, UniProt O75460); conditions: Ri, et al., 2012; cited from earlier work
Sequence of IRE1α kinase activity (O75460 19-977): as above

[6] = treatment from p9 to p16 (once/week), vs vehicle treated animals
[7] = mouse, in vivo, listed as Irela inhibitor
[8] = 0.5 mg/kg i.p. once every 2 weeks, between week 6 and 18 (6 doses), p<0.001

What does the source list for `N#Cc1cn([C@@H]2O[C@H](CO)C(O)C2O)c2ncnc(N)c12` (stereo partly drawn) [toyocamycin, 4-Aminopyrrolo[2,3-d]pyrimidine-5-carbonitrile 7-(β-D-ribofuranoside)]?
disease at P16 ([1]; 0.5 mg/kg at P10): significantly improved disease; KW/BW ratio ([1]; 1 dose 0.5 mg/kg i.p. at P10, assessed at P16, p<0.001): dramatic improvement; BUN ([1]; 1 dose 0.5 mg/kg i.p. at P10, assessed at P16, p<0.05): dramatic improvement; cystic phenotype (morphological and functional parameters) ([1]; FIG. 6): dramatic improvement; BUN (marker of kidney function) [1, 6]: dramatic decrease; KW/BW ratio [1, 6]: dramatic decrease; cystic cell viability (cystic cell): inhibits; liver toxicity ([2]; 0.5 mg/kg IP, 1×/week, from 13 wks until 18 wks): does not cause liver toxicity; KW/BW ratio ([2]; 0.5 mg/kg every 2 weeks between 12 and 18, FIGS. 31A-31B): decrease; KW/BW ratio ([2]; 0.5 mg/kg i.p. once every 2 weeks, week 6 until week 18, vs untreated mice): significant decrease; disease progression ([2]; treatment from 6 to 18 weeks, started immediately after gene inactivation): improves; inhibition of IRE1α endoribonuclease activity ([3]; Ri, et al., 2012): potent inhibitor; pIC50 ([3]; in vitro, read-out: IC50, inhibition of Ire1α endoribonuclease activity): ~7.00; systemic side effects [4]: no apparent systemic side effects; impact on nucleotide incorporation (nucleotide incorporation): without any impact; dependence of the effect on Ire1 (PKD mice; FIG. 36, 0.5 mg/kg, 1×/2 wks between 6-18 weeks of age): depends on the presence of Ire1; apoptosis in cyst cells with PC1 mutation (PKD mice; FIGS. 22A-22C): Enhanced apoptosis; systemic toxicity (body weight) (PKD mice; FIGS. 22A-22C): No apparent systemic toxicity; collagen deposition (PKD mice; FIGS. 24A-24B): prevents; BUN (kidney function) (PKD mice; mouse, in vivo): reduction; kidney to body weight ratio (PKD mice; mouse, in vivo): dramatic reduction; serum creatinine (PKD mice; mouse, in vivo): reduction; BUN (kidney function) (PKD mice; [7]): Normalized kidney function; kidney to body weight ratio (PKD mice; [7]): Reduced cyst growth; BUN [5, 8]: almost a complete rescue; also recorded: dramatic improvement; KW/BW ratio [5, 8]: almost a complete rescue; also recorded: dramatic improvement; cyst growth ([5]; 0.5 mg/kg, 1×/2 wks between 6-18 weeks of age): prevents; apoptosis of cyst lining epithelia (TUNEL) ([5]; 0.5 mg/kg, 1×/2 wks, listed as Ire1α inhibitor): causes apoptosis; disease progression ([5]; once every 2 weeks starting at 6 weeks of age, vs vehicle treated animals): almost complete inhibition; effect in cells where Cre is not expressed (selectivity) ([5]; preliminary analysis, data not shown): restricted to Pkd1 null segments; apoptosis in kidneys (TUNEL) ([5]; treated between week 12 to 18, proximal tubules marked by LTA): specific TUNEL-positive signal in cyst lining cells; levels of spliced XBP1 (qPCR) ([5]; treated vs. untreated mice, target engagement): lower; also recorded: decreased expression; cystic phenotype (morphological and functional parameters) ([5]; treatment from 6 weeks until 18 weeks age, FIG. 7): dramatic improvement; body weight ([5]; untreated vs. treated animals, once every 2 weeks, week 6 to 18): did not differ; inhibition of IRE1α kinase activity (IRE1α kinase activity): does not inhibit
